Data from patent US10501454B2, “Monocyclic β-lactam-siderophore conjugate, and preparation method and use thereof” (Shanghai Institute of Materia Medica, Chinese Academy of …, priority 2016, dated 2019).
Counter-ions that a name gives are not always drawn.

Assays:
[1] = system: Acinetobacter baumannii (4 strains); experiment: MIC, broth microdilution, iron-deficient MH medium; type: cell-based; conditions: Acinetobacter baumannii; iron-deficient MH medium (16 mg/L 2,2'-bipyridine); multidrug-resistant clinical isolates (integron I, OXA23); read-out: Antibacterial activity MIC, Acinetobacter baumannii (4 strains)
Protocol: (§1) Supplier of the strains: all of the above strains were provided by Sichuan Primed Shines Bio-tech Co., Ltd. A single colony was isolated by streaking on agar plates for each strain prior to the experiment, and the cells freshly cultured at 37° C. overnight were appropriately diluted for the experiment.
(§2) Medium: MH liquid medium (OXOID).
(§3) Culture condition: cells were incubated at 35-37° C. for 16-18 h.
(§4) The broth microdilution method recommended by Clinical and Laboratory Standards Institute (CLSI), Performance Standards for Antimicrobial Susceptibility Testing; Twenty-Third Informational Supplement, M02-All, M07-A9 and M11-A8, 2013 was used to determine the MIC value of each test sample against each test strain in the normal MH medium and iron-deficient MH medium.
(§5) BPL was added to the normal MH medium to obtain a final concentration of 16 mg/L; According to the method in Section 1.2.1, 100 μl of each test sample solution at different concentrations was aspirated to the 1st to 10th well in a 96-well sterile polystyrene plate to obtain the final drug concentrations of 16, 8, 4, 2, 1, 0.5, 0.25, 0.125, 0.06, and 0.03 mg/L, respectively. Then, 100 μl of the test bacterial liquid was added to each well (200 μl per well), and the final concentration of the bacterial liquid was approximately 10^4 CFU/ml. After sealing, it was placed in a 35-37° C. incubator for 18-20 hours for testing the result. The OD600 value was measured by a microplate reader, Minimal Inhibitory Concentration (MIC) of a drug is the lowest concentration of the drug which prevents growth of bacteria in the wells.

[2] = system: Klebsiella pneumoniae (4 strains); experiment: MIC, broth microdilution, iron-deficient MH medium; type: cell-based
Protocol: as §1, §2, §3, §4, §5

[3] = system: Pseudomonas aeruginosa (4 strains); experiment: MIC, broth microdilution, iron-deficient MH medium; type: cell-based; conditions: Pseudomonas aeruginosa; iron-deficient MH medium (16 mg/L 2,2'-bipyridine); multidrug-resistant clinical isolates (integrator I, IMP4); read-out: Antibacterial activity MIC, Pseudomonas aeruginosa (4 strains)
Protocol: as §1, §2, §3, §4, §5

[4] = system: Escherichia coli (4 strains); experiment: MIC, broth microdilution, iron-deficient MH medium; type: cell-based; conditions: Escherichia coli; iron-deficient MH medium (16 mg/L 2,2'-bipyridine); clinical isolates (ESBLs); read-out: Antibacterial activity MIC, Escherichia coli (4 strains)
Protocol: as §1, §2, §3, §4, §5

[5] = system: Escherichia coli ATCC 35218; experiment: MIC, broth microdilution, iron-deficient MH medium; type: cell-based; conditions: Escherichia coli, ATCC35218; iron-deficient MH medium (16 mg/L 2,2'-bipyridine); quality control strain; read-out: Antibacterial activity MIC, Escherichia coli ATCC 35218
Protocol: (§6) Strain for quality control: Escherichia coli ATCC35218, purchased from National Center of Clinical Laboratory.
as §2, §3, §4, §5

[6] = Pharmacokinetic test in rats, intravenous; type: in vivo; conditions: SD rats, intravenous 1.0 mg/kg, plasma
Protocol: 2.1.2 Test animals: 6 SD rats, male, weight: 200-220 g.
2.1.3 Drug Preparation: an appropriate amount of the sample was weighed and prepared into a 0.2 mg/mL solution with water for injection.
2.1.4 Administration of the drug: 6 SD rats, male, weight: 200-220 g, were randomly divided into two groups, 3 rats in each group. […] The intravenous dose was 1.0 mg/kg, and the intravenous volume was 5 mL/kg.
Intravenous administration: 2 min, 5 min, 15 min, 30 min, 45 min, 1 h, 1.5 h and 3 h after administration. At the above set time points, 0.3 ml of venous blood was taken from the posterior venous plexus of the rat eye, placed in a heparinized tube, centrifuged at 11,000 rpm for 5 min, then the plasma was separated and stored in a refrigerator at −20° C. All of the rats were fed 2 hours after administration.
After administration, the pharmacokinetic parameters were calculated using a non-compartmental model of WinNonlin 5.3 software (Pharsight, USA).

[7] = system: Escherichia coli ECO-14-4 (ESBLs); experiment: In vivo efficacy in mice systemically infected with Escherichia coli ECO-14-4 (ESBLs); conditions: Escherichia coli; Kunming mice, intraperitoneal infection, drug s.c. 0.5 h and 4 h after infection, deaths over 7 days, Bliss method; read-out: ED50 Subcutaneous injection
Protocol: 3.1 Test strains: Clinically isolated pathogenic Escherichia coli ECO-14-4 (ESBLs), supplied by Sichuan Primed Shines Bio-tech Co., Ltd.
3.2 Test animals: Kunming mice, age: 4 to 5 weeks, weight: 18 to 22 g, half male, half female, SPF grade.
3.3 Test methods: Mice were randomly divided into several groups, 5 mice for each group, half male and half female, and 5 doses for each test drug: 1.25, 2.5, 5, 10 and 20 mg/kg. The mice were intraperitoneally injected with 0.5 mL of […] CFU/mL bacterial suspension for each mouse, and subcutaneously injected with the drug at the designed dose 0.5 h and 4 h after infection. The subcutaneous injection volume was 0.2 ml/20 g mouse weight; the number of deaths in mice was observed and recorded for 7 consecutive days. According to the number of deaths in mice, the half effective dose ED50 was calculated according to the Bliss method using the DAS 1.0 software, edited by Sun Ruiyuan et al.

[8] = system: Escherichia coli ATCC 35218; experiment: MIC, broth microdilution, normal MH medium; type: cell-based; conditions: Escherichia coli, ATCC35218, quality control strain, read-out: Antibacterial activity MIC, Escherichia coli ATCC 35218
Protocol: as §6, §2, §3, §4
After diluting each sample to different concentrations with normal MH medium, 100 μl of each test sample solution at different concentrations was separately aspirated onto a 96-well sterile polystyrene plate. Drug solutions were added to the 1st to 10th well with the final concentrations of 16, 8, 4, 2, 1, 0.5, 0.25, 0.125, 0.06, and 0.03 mg/L in each well, respectively. The 11th well, as a blank control, was not added with drugs and bacteria. The 12th well, as a bacterial growth control, was added with bacteria but no drug.
The test bacterial liquid was adjusted to a bacterial suspension of 0.5 Mcfarland standard with physiological saline, and diluted with MH broth at 1:100, and then added to the drug solution so that a final concentration of the bacterial liquid was approximately 10^4 CFU/ml; 100 μl of the bacterial liquid was further added to each of the above wells (the total volume in each well is 200 μl), which was sealed and placed in a 35-37° C. incubator for 18-20 h for testing the result. The OD600 value was measured by a microplate reader, Minimal Inhibitory Concentration (MIC) of a drug is the lowest concentration of the drug which prevents growth of bacteria in the wells. 1.2.2 MIC in iron-deficient MH medium

Compound: CC(C)C(O/N=C(\C(=O)N[C@@H]1C(=O)N(OS(=O)(=O)O)C1(C)C)c1csc(N)n1)c1cc(=O)c(O)cn1O (stereo partly drawn) [Compound 12, (3S)-3-((Z)-2-(2-aminothiazol-4-yl)-2-((1-(1,5-dihydroxy-4-oxo-1,4-dihydropyridin-2-yl)methylisopropyloxy)imine)acetamido)-2,2-dimethyl-4-oxoazetidine-1-hydrogen sulfate]
- MIC [1]: 0.5 to 1 µg/mL
- MIC ([2]; Klebsiella pneumoniae, iron-deficient MH medium (16 mg/L 2,2'-bipyridine), multi-drug resistant clinical isolates (KPC2), read-out: Antibacterial activity MIC, Klebsiella pneumoniae (4 strains)): 0.25 to 0.5 µg/mL
- times more effective than BAL30072 in inhibitory activity against Klebsiella pneumonia ([2]; iron-deficient MH medium, from MIC of Table 3): 128-256 times
- MIC [3]: 0.25 to 1 µg/mL
- MIC [4]: 0.03 to 0.25 µg/mL
- MIC [5]: < 0.03 µg/mL
- Clearance CL [6]: 11 ± 5.5 mL/min/kg
- Half-life T1/2 [6]: 27 ± 6.6 min
- Vd ([6]; male, rat, in vivo, read-out: Apparent Distribution Volume Vss): 0.3 ± 0.03 L/kg
- AUC(0-t) ([6]; male, rat, in vivo, read-out: Area Under the Curve AUC0-4): 1730 ± 697 ng·h/mL
- MRT ([6]; male, rat, read-out: Residence Time MRT): 30.6 ± 10.8 min
- ED50 [7]: 3.37 mg/kg
- MIC [8]: < 0.03 µg/mL
